{"source": "ChEMBL document CHEMBL1136602", "about": "(Bioorg Med Chem Lett, 2003)"}
{"system": "Mus musculus", "experiment": "Anticocaine activity was assessed through attenuation of convulsions caused by the intraperitoneal administration of cocaine 60 mg/kg in mice", "format": "functional", "conditions": "not given", "units": {"AD50": "mg/kg"}}
{"smiles": "CN(CCc1ccc(Cl)c(Cl)c1)CCN1CCCC1", "AD50": 2}
{"smiles": "COc1cccc(CN2CCN(Cc3ccccc3)CC2)c1", "AD50": 17}
{"smiles": "COc1ccc(CN2CCN(Cc3ccccc3)CC2)cc1", "AD50": 27}
{"smiles": "Clc1ccccc1CN1CCN(Cc2ccccc2)CC1", "AD50": 15}
{"smiles": "Clc1ccc(CN2CCN(Cc3ccccc3)CC2)cc1", "AD50": 29}
{"smiles": "Clc1cccc(CN2CCN(Cc3ccccc3)CC2)c1", "AD50": 8}
{"smiles": "c1ccc(CN2CCN(Cc3ccccc3)CC2)cc1", "AD50": 23}
{"smiles": "Clc1ccc(CN2CCN(Cc3ccccc3)CC2)c(Cl)c1", "AD50": 16}
{"system": "Mus musculus", "experiment": "Anticocaine activity was assessed through attenuation of convulsions caused by the intraperitoneal administration of cocaine 60 mg/kg in mice; Agonist activity exacerbated the convulsive effects of cocaine", "format": "functional, organism-based", "set-up": "dose 60 mg/kg", "conditions": "filed as agonist"}
{"smiles": "Clc1ccc(CN2CCN(Cc3ccccc3)CC2)cc1Cl", "AD50": "Agonist activity exacerbated the convulsive effects of cocaine"}
{"target": "Sigma non-opioid intracellular receptor 1 (Homo sapiens, UniProt Q99720)", "sequence (Q99720 whole entry)": "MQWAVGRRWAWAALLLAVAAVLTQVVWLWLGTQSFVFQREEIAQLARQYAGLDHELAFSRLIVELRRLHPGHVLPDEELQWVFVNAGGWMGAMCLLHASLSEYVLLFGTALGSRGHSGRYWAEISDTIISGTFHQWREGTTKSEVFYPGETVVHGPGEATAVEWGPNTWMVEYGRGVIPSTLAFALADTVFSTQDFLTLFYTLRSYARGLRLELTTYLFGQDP", "experiment": "Binding affinity towards Sigma-1 receptor", "conditions": "not given", "units": {"Ki": "nM"}}
{"smiles": "COc1cccc(CN2CCN(Cc3ccccc3)CC2)c1", "Ki": 0.39}
{"smiles": "COc1ccc(CN2CCN(Cc3ccccc3)CC2)cc1", "Ki": 0.47}
{"smiles": "Clc1ccccc1CN1CCN(Cc2ccccc2)CC1", "Ki": 5.3}
{"smiles": "Clc1ccc(CN2CCN(Cc3ccccc3)CC2)cc1", "Ki": 1.4}
{"smiles": "Clc1ccc(CN2CCN(Cc3ccccc3)CC2)cc1Cl", "Ki": 0.58}
{"smiles": "Clc1cccc(CN2CCN(Cc3ccccc3)CC2)c1", "Ki": 0.46}
{"smiles": "Clc1ccc(CN2CCN(Cc3ccccc3)CC2)c(Cl)c1", "Ki": 7.6}
{"target": "Sigma 2 receptor", "experiment": "Binding affinity towards Sigma-2 receptor", "conditions": "not given", "units": {"Ki": "nM"}}
{"smiles": "CN(CCc1ccc(Cl)c(Cl)c1)CCN1CCCC1", "Ki": 8}
{"smiles": "COc1cccc(CN2CCN(Cc3ccccc3)CC2)c1", "Ki": 108}
{"smiles": "COc1ccc(CN2CCN(Cc3ccccc3)CC2)cc1", "Ki": 161}
{"smiles": "Clc1ccccc1CN1CCN(Cc2ccccc2)CC1", "Ki": 527}
{"smiles": "Clc1ccc(CN2CCN(Cc3ccccc3)CC2)cc1", "Ki": 187}
{"smiles": "Clc1ccc(CN2CCN(Cc3ccccc3)CC2)cc1Cl", "Ki": 7.54}
{"smiles": "Clc1cccc(CN2CCN(Cc3ccccc3)CC2)c1", "Ki": 56.4}
{"smiles": "c1ccc(CN2CCN(Cc3ccccc3)CC2)cc1", "Ki": 1270}
{"smiles": "Clc1ccc(CN2CCN(Cc3ccccc3)CC2)c(Cl)c1", "Ki": 123}
